SMILES strings stand for the structures. Some results are limits rather than exact numbers.

Consider ten molecules from US4713200A, “Pesticidal compounds” (Burroughs Wellcome Co., priority 1984, dated 1987).

Holding throughout (format): in vivo
In data set [1] the test system is Mixed sex Musca domestica. Description: Knockdown activity against houseflies (Kearns and March chamber spray). Conditions: for KD10 min % effect: 10 min. As to the method:
Mixed sex Musca domestica were held in a Kearns and March chamber and sprayed with 0.2 ml of a solution of the compound in OPD/dichloromethane. Knockdown was assessed at 1 min. intervals for 10 mins.

The subject of data set [2] is Mustard Beetle (Phaedon cochleariae) second-instar larvae. Description: Activity against mustard beetle larvae (topical application). As to the method: Second-instar larvae were used in all the tests and compounds were applied topically to the dorsal surface of the abdomen, using a microapplicator. Between 10 and 33 larvae were used at each concentration of the chemicals. Analar acetone and Analar butanone were used as solvents. In the first tests a 0.5 μl droplet was applied to each larva but after this the droplet size was increased to 1 μl as the larvae were unaffected by the solvents.
After treatment, all the larvae (usually 20) tested at a particular concentration were confined together on turnip leaves. The leaves were placed on damp filter paper in a petri dish and covered with a second layer of filter paper in the lid of the dish.
The petri dishes were maintained in an incubator at 20° C. and 16 h light. The turnip leaves were replaced as they were eaten by the larvae.
The larvae were assessed at intervals, from 1 h to 216 h after treatment. The following categories were used to classify the larvae:
i. Healthy larvae which were feeding and moved around the dish

The subject of a further data set is Sitophilus granarius. Description: Activity against grain beetles (deposits on grain). The conditions noted are these: 6 days. The protocol:
Mortality was assessed after 6 days.

The next data set has as its system male Blattella germanica. Description: Activity against cockroaches (deposit on glass). As to the method:
Knockdown was assessed after 10 and 60 minutes and mortality after 1 day and 6 days.

Data set [3] deals with female Culex quinquefasciatus. The data set is described as follows: Knockdown activity against mosquitoes (wind tunnel spray). Conditions: for KD10 min % effect: 10 min; for Kill: 24 hrs. As to the method:
The knockdown activity of compounds was assessed as follows: Caged female Culex quinquefasciatus were sprayed in a wind tunnedl with 0.2 ml of a solution of the compound in odourless petroleum distillate (OPD)/dichloromethane (80/20) and knockdown was assessed at minute intervals for 10 mins. The insects were transferred to a holding cup and kept for 24 hrs with sugar/water. Mortalities were assessed at 24 hrs.

The subject of data set [4] is female Musca domestica (WRL strain). Description: Lethal activity against house flies (topical application, with and without piperonyl butoxide). Conditions: mortality after 48 hrs; for LD50 (synergised): with synergist 6 μg piperonyl butoxide per insect. As to the method:
The test compound was applied with the application of the synergist (6 μg piperonyl butoxide (PB) per insect). Mortality was assessed after 48 hrs.

In data set [5] the test system is third instar larvae of Aedes aegypti. Description: Activity against mosquito larvae (aqueous suspension). The conditions noted are these: 2.5 ppm cpd (+ 12.5 pb).
Data set [6] relates to fully engorged female Boophilus microplus, susceptible strain. The data set is described as follows: Activity against the cattle tick, injection. Conditions: 10 μg/tick, 14 days. The protocol:
The compound was supplied as a […] solution in DMSO:Acetone (1:1). Administration of the compound was by means of a microapplicator which was preset to deliver 0.2 μl of solution. The compound in solution was injected into fully engorged female Boophilus microplus, susceptible strain, at a site just lateral to the mouthparts at the rate of 10 μg/tick. Reducing the concentration reduced the dose delivered.
After injection the ticks were maintained at 24° C. and 85% RH for 14 days. At this time the ticks were examined for the presence of viable eggs which gave the percent inhibition of reproduction (% IR).

[7] abbreviates: 0.1 % cpd (piperonyl butoxide entry printed "^").
Setting [8] is: 500 μg/ml, 1 hour after treatment.
The mark [9] stands for this setting: 500 μg/ml, 20 hours after treatment.
The mark [10] stands for this setting: 1000 μg/ml, 1 hour after treatment.
The mark [11] stands for this setting: 1000 μg/ml, 20 hours after treatment.
[12] abbreviates: 0.03 % cpd (0.15 piperonyl butoxide).
Setting [13] is: 0.3 % cpd (1.5 piperonyl butoxide).
Setting [14] is: 0.1 % cpd (0.5 piperonyl butoxide).

In the case of `CC(C)CNC(=O)/C=C/C=C/CCCCOCc1cccc(C(F)(F)F)c1` [Example 2, N-isobutyl 9-(3'trifluoromethylbenzyloxy)-(2E,4E)-nonadienamide], the kT50 is 6.1 min in data set [1] (setting [7]), 8.6 min in data set [3] (setting [12]) and 1.2 min in data set [3] (setting [13]). For the same molecule, the figures for the “KD10 min % effect” value in data set [1] (setting [7]), in data set [3] (setting [12]) and in data set [3] (setting [13]) were 86%, 56% and 100%, respectively. The “Dead (number of larvae)” value in data set [2] (setting [8]) is recorded as 0; in data set [2] (setting [9]), 24; in data set [2] (setting [10]), 0; in data set [2] (setting [11]), 29. The “Healthy (number of larvae)” value in data set [2] (setting [8]) is 0; in data set [2] (setting [9]), 9; in data set [2] (setting [10]), 0; in data set [2] (setting [11]), 4. Moreover, the “Paralysed (number of larvae)” value in data set [2] (setting [8]) came to 33; in data set [2] (setting [9]) it was 0; in data set [2] (setting [10]) it was 33; in data set [2] (setting [11]), 0. In addition, the “% mortality” value in the data set with Sitophilus granarius (20 ppm cpd (+ 100 pb)) is 84%; in data set [5] it was 100%. For the same molecule, in the data set with male Blattella germanica (1400 mg/m^2 (+ 1400 pb)), the “% mortality 1 day” value was found to be 50%. Also, in the data set with male Blattella germanica (1400 mg/m^2 (+ 1400 pb)), the “% mortality 6 day” value came to 50%. The Kill in data set [3] (setting [12]) is given as 4%; in data set [3] (setting [13]), 71%. The “LD50 (synergised)” value in data set [4] was 0.2 μg/fly.
Turning to `CC(C)CNC(=O)/C=C/C=C/CCCCCCOCc1cc(C(F)(F)F)cc(C(F)(F)F)c1` [Example 4, N-isobutyl 11-(3',5'-bis-trifluoromethylbenzyloxy)-(2E,4E)-undecadienamide], the “% mortality” value in the data set on Sitophilus granarius (50 ppm cpd (+ 500 pb)) turned out to be 100%. In addition, in the data set on male Blattella germanica (700 mg/m^2 (+ 700 pb)), the “% mortality 1 day” value worked out at 32% and the “% mortality 6 day” value was 32%. In data set [4], the “LD50 (synergised)” value is 0.025 μg/fly. Further, in data set [4] (without synergist), the “LD50 (unsynergised)” value stood at 0.12 μg/fly.
`CC(C)CNC(=O)/C=C/C=C/CCCCCOCc1ccccc1` [Example 8, N-iso-butyl 10-(benzyloxy)-(2E,4E)-decadienamide]: the “LD50 (synergised)” value in data set [4] was over 5 μg/fly.
Turning to `CC(C)CNC(=O)/C=C/C=C/CCCCOCCOc1cc(Cl)cc(Cl)c1` [Example 66, N--isobutyl 9-(2-(3',5'-dichlorophenoxy)-ethoxy)-nona-2E, 4E-dienamide], in data set [1] (setting [14]), the kT50 is 5.1 min and the “KD10 min % effect” value is given as 96%. Also, in data set [3] (setting [14]), the kT50 came to 1.2 min, the “KD10 min % effect” value amounted to 96% and the Kill was found to be 40%.
With `CC(C)C(C)NC(=O)/C=C/C=C/CCCCOCc1ccc(OC(F)(F)F)cc1` (stereo not shown) [Example 85], the “% IR (percent inhibition of reproduction)” value in data set [6] was determined as 100%. For the same molecule, the mortality at 10 µg/tick in data set [6] (Rhipicephalus microplus, 336 h, read-out: % kill) was 50%.
Regarding `CC(C)ONC(=O)/C=C/C=C/CCCCOCc1cccc(C(F)(F)F)c1` [Example 89], the “LD50 (synergised)” value in data set [4] was over 5 μg/fly.
Still for that read-out and setting: then `CC(NC(=O)/C=C/C=C/CCCCCCOCc1cc(C(F)(F)F)cc(C(F)(F)F)c1)C(C)(C)C` (stereo not shown) [Example 108], with 0.09 μg/fly; and `CC1(C)CC1NC(=O)/C=C/C=C/CCCCCCOCc1cc(C(F)(F)F)cc(C(F)(F)F)c1` (stereo not shown) [Example 109], with 0.09 μg/fly; and `CC(C)CNC(=O)/C=C/C=C/CCCCC(=O)Cc1cccc(C(F)(F)F)c1` [Example 122, N--Isobutyl 11-(3-trifluoromethylphenyl)-10-oxo-undeca-2E,-dienamide], with over 1.5 μg/fly.
For `CCC(CCC/C=C/C=C/C(=O)NCC(C)C)N(C)Cc1ccccc1` (stereo not shown) [Example 126, N--Isobutyl N'--methyl-N'--benzyl-9-aminoundeca-2E, 4E-dienamide], the “LD50 (synergised)” value in data set [4] is listed as over 20 μg/fly.
